Laboratory results published in patent US11053226B2, “KRAS G12C inhibitors and methods of using the same” (Amgen Inc., priority 2018, dated 2021).
Where two headings read alike, the source gives them in different places.

How the values were obtained:
[1] = target: GDP-bound KRAS protein (aa 1-169), containing both G12C and C118A amino acid substitutions (Homo sapiens (Human), UniProt P01116, C118A/G12C); assay: Coupled Nucleotide Exchange Assay; format: biochemical
Experimental: For compounds in Table 9, the following assay conditions were employed:
Coupled Nucleotide Exchange Assay:
The assay plates were then read on a PerkinElmer EnVision Multilabel Reader, using AlphaScreen® technology, and data were analyzed using a 4-parameter logistic model to calculate IC50 values.

[2] = test system: Phosphorylation of ERK1/2 in MIA PaCa-2 cells; assay: Phospho-ERK1/2 MSD Assay; format: cell-based; conditions: MiaPaCa-2 cells
[3] = test system: Phosphorylation of ERK1/2 in A549 cells; assay: Phospho-ERK1/2 MSD Assay (A549); format: cell-based
[4] = read-out: Coupled Exchange IC50 (2 h), 2 h compound pre-incubation
[5] = read-out: Coupled Exchange IC50 (20 h), 20 h compound pre-incubation
[6] = Homo sapiens, MIA PaCa-2, 4 h, read-out: pERK IC50 (4 h, MiaPaCa-2), 4 h compound treatment
[7] = Homo sapiens, A549, 4 h, read-out: pERK IC50 (4 h, A549), 4 h compound treatment
[8] = read-out: Coupled Exchange IC50 (5 min), 5 min compound pre-incubation
[9] = Homo sapiens, MIA PaCa-2, read-out: pERK IC50 (4 h), 4 h compound treatment
[10] = Homo sapiens, read-out: pERK IC50 (4 h), 4 h compound treatment

GDP-bound KRAS protein (aa 1-169), containing both G12C and C118A amino acid substitutions, sequence (P01116 other isoform, or with tags, fused parts or gaps G12C/C118A): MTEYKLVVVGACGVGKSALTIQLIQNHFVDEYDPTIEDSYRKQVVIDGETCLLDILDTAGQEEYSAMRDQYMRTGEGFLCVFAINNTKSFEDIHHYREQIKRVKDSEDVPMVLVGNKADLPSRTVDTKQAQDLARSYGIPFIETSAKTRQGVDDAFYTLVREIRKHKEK

Structure (SMILES): C=CC(=O)N1CC(N(C)C(=O)Cn2c(C)c(C(=O)N3CCN(c4ccc([N+](=O)[O-])cn4)CC3)c3cc(Br)ccc32)C1 [Example 38]
- IC50 [1, 4]: 0.76 µM
- IC50 [1, 5]: 0.22 µM
- IC50 [2, 6]: 3.33 µM
- IC50 [3, 7]: > 100 µM

Structure (SMILES): C=CC(=O)N1CC(NC(=O)Cn2c(C3CC3)c(C(=O)N3CCCC(C)(C)C3)c3cc(Cl)cc(C)c32)C1 [Example 11]
- IC50 [1, 4]: 0.66 µM
- IC50 [2, 6]: 1.6 µM
- IC50 [3, 7]: 36.4 µM

Structure (SMILES): C=CC(=O)N1CC(NC(=O)Cn2cc(Cl)c3cc(Br)ccc32)C1 [Example 154]
- IC50 [1, 8]: 56.2 µM
- IC50 [1, 4]: 5.12 µM
- IC50 [1, 5]: 0.86 µM
- IC50 [2, 9]: 52.1 µM
- IC50 [3, 10]: > 100 µM

Structure (SMILES): C=CC(=O)N1CC(NC(=O)Cn2cc(C(=O)N3CCc4c(C)cccc4C3)c3cc(Br)cc(C)c32)C1 [Example 94]
- IC50 [1, 4]: 0.21 µM
- IC50 [1, 5]: 0.13 µM
- IC50 [2, 6]: 16.6 µM
- IC50 [3, 7]: > 100 µM

Structure (SMILES): C=CC(=O)N1CC(NC(=O)Cn2c(C)c(C(=O)N3[C@H](C)Cc4c(OC)cccc4[C@H]3C)c3cc(Br)cc(C)c32)C1 (stereo in doubt) [Example 2-3]
- IC50 [1, 4]: 0.16 µM
- IC50 [2, 6]: 0.67 µM
- IC50 [3, 7]: 51.7 µM

Structure (SMILES): C=CC(=O)N1CC(NC(=O)Cn2c(C)c(-c3ccccc3C(C)C)c3cc(Cl)ccc32)C1 [Example 5-3, 2-(5-Chloro-2-methyl-3-(2-(2-propanyl)phenyl)-1H-indol-1-yl)-N-(1-(2-propenoyl)-3-azetidinyl)acetamide]
- IC50 [1, 8]: 4.11 µM
- IC50 [1, 4]: 0.63 µM
- IC50 [1, 5]: 0.22 µM
- IC50 [2, 9]: 2.06 µM
- IC50 [3, 10]: > 33.3 µM

Structure (SMILES): C=CC(=O)N1CC(N(C)C(=O)Cn2cc(I)c3cc(I)ccc32)C1 [Example 66]
- IC50 [1, 8]: 19.5 µM
- IC50 [1, 4]: 2.41 µM
- IC50 [1, 5]: 0.1 µM
- IC50 [2, 9]: 8.48 µM
- IC50 [3, 10]: > 33.3 µM

Structure (SMILES): C=CC(=O)N1CC(N(C)C(=O)Cn2cc(I)c3cc(Br)ccc32)C1 [Example 43]
- IC50 [1, 8]: 36.6 µM
- IC50 [1, 4]: 4.65 µM
- IC50 [1, 5]: 0.44 µM
- IC50 [2, 9]: 3.82 µM
- IC50 [3, 10]: > 33.3 µM

Structure (SMILES): C=CC(=O)N1CC(NC(=O)Cn2c3c(c4cc([N+](=O)[O-])ccc42)CCCC3)C1 [Example 143]
- IC50 [1, 4]: 4.53 µM
- IC50 [1, 5]: 0.85 µM
- IC50 ([2]; read-out: pERK IC50 (4 h, MiaPaCa-2), 4 h compound treatment): 44.9 µM
- IC50 ([3]; read-out: pERK IC50 (4 h, A549), 4 h compound treatment): > 100 µM

Structure (SMILES): C=CC(=O)N1CC(NC(=O)Cn2cc(-c3c(C)ccc4cn[nH]c34)c3cc(Br)ccc32)C1 [Example 130]
- IC50 [1, 4]: 4.49 µM
- IC50 [1, 5]: 1.02 µM
- IC50 [2, 9]: 37 µM
- IC50 [3, 10]: 50.1 µM

Structure (SMILES): C=CC(=O)N1CC(NC(=O)Cn2c(C)c(-c3ccccc3N(C)C)c3cc(Cl)ccc32)C1 [Example 98]
- IC50 [1, 4]: 1.12 µM
- IC50 [2, 9]: 18.2 µM
- IC50 [3, 10]: 13.2 µM

Structure (SMILES): C=CC(=O)N1CC(NC(=O)Cn2cc(I)c3cc(Br)cc(C)c32)C1 [Example 153]
- IC50 [1, 4]: 1.58 µM
- IC50 [1, 5]: 0.26 µM
- IC50 [2, 9]: 51.8 µM
- IC50 [3, 10]: > 100 µM

Structure (SMILES): C=CC(=O)N1CC(NC(=O)Cn2cc(Br)c3cc(Cl)cc(C)c32)C1 [Example 91]
- IC50 [1, 4]: 3.18 µM
- IC50 [1, 5]: 0.37 µM
- IC50 [2, 9]: 16.3 µM
- IC50 [3, 10]: > 100 µM

Structure (SMILES): C=CC(=O)N1CC(NC(=O)Cn2c3ccccc3c3c(Br)cccc32)C1 [Example 117]
- IC50 [1, 4]: 2.05 µM
- IC50 [1, 5]: 0.43 µM
- IC50 [2, 9]: 29.6 µM
- IC50 [3, 10]: > 100 µM

Structure (SMILES): C=CC(=O)N1CC(NC(=O)Cn2cc(-c3c(C)ccc4[nH]ncc34)c3cc(Cl)ccc32)C1 [Example 142]
- IC50 [1, 4]: 3.71 µM
- IC50 [1, 5]: 0.83 µM
- IC50 [2, 9]: 44.1 µM
- IC50 [3, 10]: > 100 µM

Structure (SMILES): C=CC(=O)N1CC(NC(=O)Cn2cc(C3CC3)c3cc(Br)ccc32)C1 [Example 132]
- IC50 [1, 4]: 9.52 µM
- IC50 [1, 5]: 1.71 µM
- IC50 [2, 9]: 37.9 µM
- IC50 [3, 10]: > 100 µM

Structure (SMILES): C=CC(=O)N1CC(NC(=O)Cn2c3c(c4cc(Br)ccc42)CC(c2ccccc2)CC3)C1 (stereo not shown) [Example 133]
- IC50 [1, 4]: 7.06 µM
- IC50 [1, 5]: 1.33 µM
- IC50 [2, 9]: 37.9 µM
- IC50 [3, 10]: > 100 µM

Structure (SMILES): C=CC(=O)N1CC(NC(=O)Cn2cc(-c3cccnc3OC(C)C)c3cc(Br)ccc32)C1 [Example 105]
- IC50 [1, 4]: 6.45 µM
- IC50 [2, 9]: 22 µM
- IC50 [3, 10]: 11.3 µM

Structure (SMILES): C=CC(=O)N1CC(NC(=O)Cn2cc(-c3c(O)cccc3F)c3cc(Cl)ccc32)C1 [Example 144]
- IC50 [1, 4]: 3.84 µM
- IC50 [1, 5]: 0.75 µM
- IC50 [2, 9]: 46.8 µM
- IC50 [3, 10]: > 100 µM
